Laboratory results taken from patent publication US20250163104A1, “MACROCYCLIC IMMUNOMODULATORS” (priority 2021, published 2025).
Where a SMILES comes first, the peptide text is derived from it. Bridges are numbered along the chain shown (N, C = ends). [ ]: non-standard residue; d: D form. The star is where a group is joined. Phe(4-COOH) = N[C@@H](Cc1ccc(C(=O)O)cc1)C(=O)O; Bip = N[C@@H](Cc1ccc(-c2ccccc2)cc1)C(=O)O; Phe(3-Me) = Cc1cccc(C[C@H](N)C(=O)O)c1; 4Pal = N[C@@H](Cc1ccncc1)C(=O)O; Cha = N[C@@H](CC1CCCCC1)C(=O)O; dCha = N[C@H](CC1CCCCC1)C(=O)O; Carboxymethyl = O=C(O)C*; Orn = NCCC[C@H](N)C(=O)O; Dab = NCC[C@H](N)C(=O)O; Dap = NC[C@H](N)C(=O)O

What follows are molecules tested against T1, human PD-1 / PD-L1-Ig binding on Jurkat cell line over-expressing human PD-1 (Jurkat-PD-1) (Homo sapiens, UniProt Q15116) (assay: Jurkat-PD-1 Cell Binding High-Content Screening Assay (CBA)). Conditions: Jurkat-PD-1 cells, PE-labeled PD-L1-Ig 20 nM final; read-out: Jurkat HPD1_PDL1 IC50.
T1 construct: expressed in transfected cells; host or cells: Jurkat
T1 sequence (Q15116 25-288): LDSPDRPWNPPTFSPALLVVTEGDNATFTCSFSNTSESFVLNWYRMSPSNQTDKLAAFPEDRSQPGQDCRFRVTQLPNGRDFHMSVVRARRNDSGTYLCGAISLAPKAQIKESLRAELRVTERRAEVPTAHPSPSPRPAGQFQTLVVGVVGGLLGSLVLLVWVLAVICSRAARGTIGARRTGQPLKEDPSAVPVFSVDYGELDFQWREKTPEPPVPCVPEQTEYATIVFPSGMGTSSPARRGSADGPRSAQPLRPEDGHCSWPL
Format: cell-based
How it was run: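 Jurkat cells over-expressing human PD-1, in DMEM/10% FCS, pre-incubated with compound 2 h at 37° C. PE-labeled human PD-L1-Ig (20 nM final) added for 1 h; cells fixed in paraformaldehyde with Hoechst 33342 nuclear stain, washed, and bound fluorescence quantified by high-content imaging.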

Structure (SMILES)	IC50
CC(C)[C@@H]1NC(=O)[C@H](Cc2c[nH]c3ccccc23)NC(=O)[C@H](CC(=O)O)NC(=O)[C@H](Cc2ccc(O)cc2)NC(=O)[C@H](CC(N)=O)NC(=O)CSC[C@@H](C(=O)N[C@@H](C)C(N)=O)NC(=O)[C@H]([C@@H](C)O)NC(=O)[C@H](C(C)C)NC(=O)[C@H](CC2CCCCC2)NC(=O)[C@H](CCN)NC(=O)[C@@H](Cc2ccccc2)NC(=O)[C@H](CCCN)NC(=O)[C@H](CCC(=O)O)NC(=O)[C@H](Cc2ccc(-c3ccccc3)cc2)NC1=O [Compound 1435] ({CH2CO}-NYDWV[Bip]E[Orn][dF][Dab][Cha]VTCA-NH2; thioether N-14)	53.1 nM
CC(C)[C@@H]1NC(=O)[C@H](Cc2c[nH]c3ccccc23)NC(=O)[C@H](CC(=O)O)NC(=O)[C@H](Cc2ccc(OCC(=O)O)cc2)NC(=O)[C@H](CN)NC(=O)CSC[C@@H](C(=O)N[C@@H](C)C(N)=O)NC(=O)[C@H]([C@@H](C)O)NC(=O)[C@H](C(C)C)NC(=O)[C@H](CC2CCCCC2)NC(=O)[C@H](CCN)NC(=O)[C@@H](Cc2ccccc2)NC(=O)[C@H](CCCN)NC(=O)[C@H](CCC(=O)O)NC(=O)[C@H](Cc2ccc(-c3ccccc3)cc2)NC1=O [Compound 1436] ({CH2CO}-[Dap]Y(Carboxymethyl)DWV[Bip]E[Orn][dF][Dab][Cha]VTCA-NH2; thioether N-14)	22.8 nM
CC(C)[C@@H]1NC(=O)[C@H](Cc2c[nH]c3ccccc23)NC(=O)[C@H](CC(=O)O)NC(=O)[C@H](Cc2ccc(C(=O)O)cc2)NC(=O)[C@H](Cc2ccc(OCC(=O)O)cc2)NC(=O)CSC[C@@H](C(=O)N[C@@H](C)C(N)=O)NC(=O)[C@H]([C@@H](C)O)NC(=O)[C@H](C(C)C)NC(=O)[C@H](CC2CCCCC2)NC(=O)[C@H](CCN)NC(=O)[C@@H](Cc2ccccc2)NC(=O)[C@H](CCCN)NC(=O)[C@H](CCC(=O)O)NC(=O)[C@H](Cc2ccc(-c3ccccc3)cc2)NC1=O [Compound 1438] ({CH2CO}-Y(Carboxymethyl)[Phe(4-COOH)]DWV[Bip]E[Orn][dF][Dab][Cha]VTCA-NH2; thioether N-14)	30.4 nM
CC(C)[C@@H]1NC(=O)[C@H](Cc2c[nH]c3ccccc23)NC(=O)[C@H](CC(=O)O)NC(=O)[C@H](Cc2ccncc2)NC(=O)[C@H](CN)NC(=O)CSC[C@@H](C(=O)N[C@@H](C)C(N)=O)NC(=O)[C@H]([C@@H](C)O)NC(=O)[C@H](C(C)C)NC(=O)[C@H](CC2CCCCC2)NC(=O)[C@H](CCN)NC(=O)[C@@H](CC2CCCCC2)NC(=O)[C@H](CCCN)NC(=O)[C@H](CCC(=O)O)NC(=O)[C@H](Cc2ccc(-c3ccccc3)cc2)NC1=O [Compound 1440] ({CH2CO}-[Dap][4Pal]DWV[Bip]E[Orn][dCha][Dab][Cha]VTCA-NH2; thioether N-14)	86.8 nM
CC(C)[C@@H]1NC(=O)[C@H](Cc2c[nH]c3ccccc23)NC(=O)[C@H](CC(=O)O)NC(=O)[C@H](Cc2ccc(C(=O)O)cc2)NC(=O)[C@H](Cc2ccncc2)NC(=O)CSC[C@@H](C(=O)N[C@@H](C)C(N)=O)NC(=O)[C@H]([C@@H](C)O)NC(=O)[C@H](C(C)C)NC(=O)[C@H](CC2CCCCC2)NC(=O)[C@H](CCN)NC(=O)[C@@H](Cc2ccc(O)cc2)NC(=O)[C@H](CCCN)NC(=O)[C@H](CCC(=O)O)NC(=O)[C@H](Cc2ccc(-c3ccccc3)cc2)NC1=O [Compound 1445] ({CH2CO}-[4Pal][Phe(4-COOH)]DWV[Bip]E[Orn][dY][Dab][Cha]VTCA-NH2; thioether N-14)	19.5 nM
CC(C)[C@@H]1NC(=O)[C@H](Cc2c[nH]c3ccccc23)NC(=O)[C@H](CC(=O)O)NC(=O)[C@H](Cc2ccncc2)NC(=O)[C@H](CN)NC(=O)CSC[C@@H](C(=O)N[C@@H](C)C(N)=O)NC(=O)[C@H]([C@@H](C)O)NC(=O)[C@H](C(C)C)NC(=O)[C@H](CC2CCCCC2)NC(=O)[C@H](CCN)NC(=O)[C@@H](Cc2ccc(O)cc2)NC(=O)[C@H](CCCN)NC(=O)[C@H](CCC(=O)O)NC(=O)[C@H](Cc2ccc(-c3ccccc3)cc2)NC1=O [Compound 1446] ({CH2CO}-[Dap][4Pal]DWV[Bip]E[Orn][dY][Dab][Cha]VTCA-NH2; thioether N-14)	64.5 nM
CC(C)[C@@H]1NC(=O)[C@H](Cc2c[nH]c3ccccc23)NC(=O)[C@H](CC(=O)O)NC(=O)[C@H](Cc2ccncc2)NC(=O)[C@H](Cc2ccc(OCC(=O)O)cc2)NC(=O)CSC[C@@H](C(=O)N[C@@H](C)C(N)=O)NC(=O)[C@H]([C@@H](C)O)NC(=O)[C@H](C(C)C)NC(=O)[C@H](CC2CCCCC2)NC(=O)[C@H](CCN)NC(=O)[C@@H](Cc2ccc(O)cc2)NC(=O)[C@H](CCCN)NC(=O)[C@H](CCC(=O)O)NC(=O)[C@H](Cc2ccc(-c3ccccc3)cc2)NC1=O [Compound 1447] ({CH2CO}-Y(Carboxymethyl)[4Pal]DWV[Bip]E[Orn][dY][Dab][Cha]VTCA-NH2; thioether N-14)	29.8 nM
CC(C)[C@@H]1NC(=O)[C@H](Cc2c[nH]c3ccccc23)NC(=O)[C@H](CC(=O)O)NC(=O)[C@H](Cc2ccc(OCC(=O)O)cc2)NC(=O)[C@H](CN)NC(=O)CSC[C@@H](C(=O)N[C@@H](C)C(N)=O)NC(=O)[C@H]([C@@H](C)O)NC(=O)[C@H](C(C)C)NC(=O)[C@H](CC2CCCCC2)NC(=O)[C@H](CCN)NC(=O)[C@@H](Cc2ccc(O)cc2)NC(=O)[C@H](CCCN)NC(=O)[C@H](CCC(=O)O)NC(=O)[C@H](Cc2ccc(-c3ccccc3)cc2)NC1=O [Compound 1448] ({CH2CO}-[Dap]Y(Carboxymethyl)DWV[Bip]E[Orn][dY][Dab][Cha]VTCA-NH2; thioether N-14)	26.9 nM

Stronger by IC50, values ahead:

IC50	Structure (SMILES)
16.6 nM	Cc1cccc(C[C@@H]2NC(=O)[C@H](CC(=O)O)NC(=O)[C@H](Cc3ccc(C(=O)O)cc3)NC(=O)[C@H](Cc3ccc(OCC(=O)O)cc3)NC(=O)CSC[C@@H](C(=O)N[C@@H](C)C(N)=O)NC(=O)[C@H]([C@@H](C)O)NC(=O)[C@H](C(C)C)NC(=O)[C@H](CC3CCCCC3)NC(=O)[C@H](CCN)NC(=O)[C@@H](Cc3ccccc3)NC(=O)[C@H](CCCN)NC(=O)[C@H](CCC(=O)O)NC(=O)[C@H](Cc3ccc(-c4ccccc4)cc3)NC(=O)[C@H](C(C)C)NC2=O)c1 [Compound 1437] ({CH2CO}-Y(Carboxymethyl)[Phe(4-COOH)]D[Phe(3-Me)]V[Bip]E[Orn][dF][Dab][Cha]VTCA-NH2; thioether N-14)
5.5 nM	CC(C)[C@@H]1NC(=O)[C@H](Cc2c[nH]c3ccccc23)NC(=O)[C@H](CC(=O)O)NC(=O)[C@H](Cc2ccc(C(=O)O)cc2)NC(=O)[C@H](Cc2ccncc2)NC(=O)CSC[C@@H](C(=O)N[C@@H](C)C(N)=O)NC(=O)[C@H]([C@@H](C)O)NC(=O)[C@H](C(C)C)NC(=O)[C@H](CC2CCCCC2)NC(=O)[C@H](CCN)NC(=O)[C@@H](CC2CCCCC2)NC(=O)[C@H](CCCN)NC(=O)[C@H](CCC(=O)O)NC(=O)[C@H](Cc2ccc(-c3ccccc3)cc2)NC1=O [Compound 1439] ({CH2CO}-[4Pal][Phe(4-COOH)]DWV[Bip]E[Orn][dCha][Dab][Cha]VTCA-NH2; thioether N-14)
13.4 nM	CC(C)[C@@H]1NC(=O)[C@H](Cc2c[nH]c3ccccc23)NC(=O)[C@H](CC(=O)O)NC(=O)[C@H](Cc2ccncc2)NC(=O)[C@H](Cc2ccc(OCC(=O)O)cc2)NC(=O)CSC[C@@H](C(=O)N[C@@H](C)C(N)=O)NC(=O)[C@H]([C@@H](C)O)NC(=O)[C@H](C(C)C)NC(=O)[C@H](CC2CCCCC2)NC(=O)[C@H](CCN)NC(=O)[C@@H](CC2CCCCC2)NC(=O)[C@H](CCCN)NC(=O)[C@H](CCC(=O)O)NC(=O)[C@H](Cc2ccc(-c3ccccc3)cc2)NC1=O [Compound 1441] ({CH2CO}-Y(Carboxymethyl)[4Pal]DWV[Bip]E[Orn][dCha][Dab][Cha]VTCA-NH2; thioether N-14)
15.9 nM	CC(C)[C@@H]1NC(=O)[C@H](Cc2c[nH]c3ccccc23)NC(=O)[C@H](CC(=O)O)NC(=O)[C@H](Cc2ccc(O)cc2)NC(=O)[C@H](CC(N)=O)NC(=O)CSC[C@@H](C(=O)N[C@@H](C)C(N)=O)NC(=O)[C@H]([C@@H](C)O)NC(=O)[C@H](C(C)C)NC(=O)[C@H](CC2CCCCC2)NC(=O)[C@H](CCN)NC(=O)[C@@H](CC2CCCCC2)NC(=O)[C@H](CCCN)NC(=O)[C@H](CCC(=O)O)NC(=O)[C@H](Cc2ccc(-c3ccccc3)cc2)NC1=O [Compound 1442] ({CH2CO}-NYDWV[Bip]E[Orn][dCha][Dab][Cha]VTCA-NH2; thioether N-14)
11.8 nM	CC(C)[C@@H]1NC(=O)[C@H](Cc2c[nH]c3ccccc23)NC(=O)[C@H](CC(=O)O)NC(=O)[C@H](Cc2ccc(OCC(=O)O)cc2)NC(=O)[C@H](CN)NC(=O)CSC[C@@H](C(=O)N[C@@H](C)C(N)=O)NC(=O)[C@H]([C@@H](C)O)NC(=O)[C@H](C(C)C)NC(=O)[C@H](CC2CCCCC2)NC(=O)[C@H](CCN)NC(=O)[C@@H](CC2CCCCC2)NC(=O)[C@H](CCCN)NC(=O)[C@H](CCC(=O)O)NC(=O)[C@H](Cc2ccc(-c3ccccc3)cc2)NC1=O [Compound 1443] ({CH2CO}-[Dap]Y(Carboxymethyl)DWV[Bip]E[Orn][dCha][Dab][Cha]VTCA-NH2; thioether N-14)
5.7 nM	CC(C)[C@@H]1NC(=O)[C@H](Cc2c[nH]c3ccccc23)NC(=O)[C@H](CC(=O)O)NC(=O)[C@H](Cc2ccc(C(=O)O)cc2)NC(=O)[C@H](Cc2ccc(OCC(=O)O)cc2)NC(=O)CSC[C@@H](C(=O)N[C@@H](C)C(N)=O)NC(=O)[C@H]([C@@H](C)O)NC(=O)[C@H](C(C)C)NC(=O)[C@H](CC2CCCCC2)NC(=O)[C@H](CCN)NC(=O)[C@@H](CC2CCCCC2)NC(=O)[C@H](CCCN)NC(=O)[C@H](CCC(=O)O)NC(=O)[C@H](Cc2ccc(-c3ccccc3)cc2)NC1=O [Compound 1444] ({CH2CO}-Y(Carboxymethyl)[Phe(4-COOH)]DWV[Bip]E[Orn][dCha][Dab][Cha]VTCA-NH2; thioether N-14)
